The test system of assay [1] is P. acnes. Briefly: MBC assays of SCFAs against P. acnes. The note with it: for MBC: Cutibacterium acnes, P. acnes 10^8 CFU/ml, overnight, 99.9% killing level. The assay is classed as cell-based, Propionibacterium acnes. The method, then: To determine the MBC values of SCFAs, P. acnes (10^8 CFU/ml) was incubated with SCFAs at various concentrations (2.5-100 mM in PBS) as indicated in each individual experiment in media on a 96-well microplate (100 μl per well) overnight. The control received only PBS. After incubation, the bacteria were diluted 1:10-1:10^6 with PBS. MBC was defined as a 99.9% killing level and determined by spotting the dilution (5 μl) on an agar plate supplemented with media for CFU counting. To determine the effect of pH on its growth, P. acnes in PBS was incubated with 5 mM succinic acid on a 96-well microplate (100 μl per well) overnight before spotting on an agar plate. As controls, P. acnes was incubated with PBS (pH 7.4) alone, PBS (pH 5.5; a pH value corresponding to the MBC of succinic acid in PBS), or buffered succinic acid (5 mM succinic acid, pH 7.4 buffered with ammonium hydroxide).
The minimal bactericidal concentration (MBC) assays were performed to determine if SCFAs exert the antimicrobial activities against P. acnes. Bacteria were incubated with acetic acid, butyric acid, lactic acid, and succinic acid various concentrations in media for 24 h. After incubation, the bacteria were diluted with PBS and spotted on an agar plate to count CFUs. […] To assess the acidity (pH 5.5) of 5 mM succinic acid in affecting growth of P. acnes, bacteria were incubated with PBS (pH 5.5) or ammonium hydroxide-buffered succinic acid (pH 7.4).

The test system of assay [2] is USA300. The experiment in a line: MBC assay against USA300. Type of assay: cell-based, Staphylococcus aureus. The method, then: To determine the MBC of propionic acid, USA300 (10^6 CFU/ml) were incubated with propionic acid at various concentrations (1.25-100 mM in PBS) as indicated in each individual experiment in media on a 96-well microplate (100 μl per well) overnight. The control received only PBS. After incubation, the bacteria were diluted 1:10-1:10^6 with PBS. […] To determine the pH effect on the bacterial growth, USA300 in TSB was incubated with 2.5 mM propionic acid on a 96-well microplate (100 μl per well) overnight before spotting on an agar plate.
To determine the minimal bactericidal concentration (MBC) and minimal fungicidal concentration (MFC) of propionic acid, microorganisms (10^6 colony forming units (cfu)/ml) were incubated overnight in media with propionic acid (1.25-2,000 mM) in a 96-well microplate (100 μl per well). The control only received PBS. After incubation, the microorganisms were diluted 1:10-1:10^6 into PBS. […]

In assay [3] the test system is P. acnes. The note with it: 5 mM, 5 min after treatment, vs PBS.
Experimental: To eliminate unbound probe, bacteria were incubated with glucose (10 mM) for an additional 30 min, washed twice in 50 mM PBS with 10 mM MgCl2, pH 7.0, and then re-suspended in 1 mM PBS. […] Fluorescence intensities were measured immediately and every min for 5 min using an excitation wavelength of 490 nm and emission wavelength of 520 nm. A drop in relative fluorescence indicates the decrease in intracellular pH. Fluorescence of the bacteria-free filtrate (background fluorescence) was measured after the 5-min assay. The treated suspensions were centrifuged at 5,000 g for 5 min, the fluorescence of the bacteria-free supernatant was measured. Calibration curves were obtained by incubation of un-treated, cFSE-loaded bacteria in buffers of various pHs. The buffer containing glycine (50 mM), citric acid (50 mM), Na2HPO4.2H2O (50 mM), and KCl (50 mM) was adjusted to various pH values ranging from 4 to 10. Equilibration of the intracellular and extracellular pH was conducted by addition of 1 μM valinomycin and nigericin (Sigma, St. Louis, Mo.).
P. acnes was loaded with an internally conjugated fluorescent pH probe, carboxyfluorescein succinimidyl ester (cFSE).
Assay [4] deals with P. acnes.
Assay [5] relates to USA300. Briefly: Interference of P. acnes fermentation with the colonization of USA300 in skin wounds in vivo. The note with it: glycerol 0.2 mg alone, compared to PBS. Also noted: species or system ICR mice. The method, then: A 5 mm wound made on the dorsal skin of ICR mice were described above. P. acnes bacteria (10^7 CFU in 5 μl PBS), P. acnes bacteria and glycerol (0.2 mg), PBS (5 μl) alone or glycerol alone were applied onto the skin wounds for 3 days. USA300 (10^7 CFU in 5 μl PBS) was administered onto the same wounds. The wounds were excised, weighted and homogenized 3 days after USA300 administration. Bacterial CFUs in the wounds were enumerated by plating serial dilutions (1:10^1-1:10^6) of the homogenate on a TSB agar plate. The plate was incubated for 24 h at 37° C. to count colonies of USA300.

Assay [6] deals with P. acnes. The experiment in a line: Growth curve of P. acnes in absence or presence of glycerol (OD600). The note with it: rich medium with glycerol vs without, anaerobic, 30° C. Type of assay: cell-based, Propionibacterium acnes. How it is done: P. acnes was incubated in rich medium in the absence (□) and presence (▪) of glycerol on a 96-well microplate under anaerobic conditions at 30° C. The OD600 was read at the indicated time points. Data are the mean±SD of three separate experiments.

The subject of assay [7] is USA300. The experiment in a line: Growth of USA300 with glycerol. Type of assay: cell-based, Staphylococcus aureus. The note with it: glycerol itself.
[8] abbreviates: topical application, 100 mM once per day, vs PBS.

In general, MBC refers to the smallest concentration meeting the test's criterion for killing. Low readings indicate more potent killing, high ones less potent killing.

Structures are written as SMILES. Values after ≈ are worked out from the molar mass of the structure shown. “Also recorded” adds a separate entry of the source.

In the case of `CC(O)C(=O)O` (stereo not drawn) [lactic acid], the minimum bactericidal concentration (MBC) against P. acnes [1] worked out at 10 mM (≈ 901 µg/mL).

As to `CCC(=O)OCCOCCOC(=O)CC` [PA-DEG-PA, propionic acid 2-(2-propionyloxyethoxy)ethyl ester], in the assay on USA300 [2] (4% dimethyl sufoxide), the “efficacy to suppress the growth of USA300 in vitro compared with propionic acid” value was “equivalent in efficacy”. Also, in the assay with USA300 [2] (dissolved in 4% dimethyl sufoxide, overnight), the “concentration for complete growth inhibition of USA300” value came to 100 mM. In addition, in the assay with USA300 [2] (dissolved in 4% dimethyl sufoxide, overnight, 0-100 mM), the “MBC (>1 log10 inhibition) against USA300” value is recorded as not below 25 mM.

In the assay with P. acnes [1], `CC(=O)O` [acetic acid] registered a minimum bactericidal concentration (MBC) of 7.5 mM (≈ 450 µg/mL).

`CCCC(=O)O` [butyric acid] showed an MBC in the assay with P. acnes [1] of 10 mM (≈ 881 µg/mL).

In the case of `O=C(O)CCC(=O)O` [succinic acid], in the assay on P. acnes [1] (5 mM succinic acid buffered with ammonium hydroxide, pH 7.4), the “antimicrobial activity against P. acnes after buffering” value is given as “persisted”. Further, in the assay with P. acnes [1], the MBC is 5 mM (≈ 590 µg/mL). Besides, in the assay with P. acnes [1] (MBC assay), the “concentration that completely killed P. acnes” value is on record as not below 210 mM and the “concentration that effectively suppressed the growth of P. acnes” value is reported as not below 25 mM. Further, the “intracellular pH of P. acnes” value in the assay on P. acnes [3] is listed as “significantly lowered”. The P. acnes-induced inflammation entry in the assay with P. acnes [4] (application of succinic acid (FIG. 5)) is “significantly neutralizes”. In addition, in the assay on P. acnes [4] (intralesional injection, 5 mM), the “P. acnes numbers in ears” value is on record as 2.9×10^4±1.3×10^4 CFU. The “MIP-2 production less than in PBS-injected ear” value in the assay with P. acnes [4] (intralesional injection, 5 mM, two days after injection, ELISA) is listed as “approximately 50%”. Moreover, the P. acnes-induced redness result with P. acnes [4] (intralesional injection, 5 mM, vs PBS) is on record as “reduced”. In the assay with P. acnes [4] (setting [8]), the MIP-2 production result is on record as “considerably lowered” and the P. acnes colonization result is “considerably lowered”.

For the compound `OCC(O)CO` [glycerol], in the assay with USA300 [5], the USA300 colonization entry is reported as “did not significantly alter” and the “size of USA300-infected lesions” value is listed as “did not significantly alter”. Moreover, the “growth of P. acnes” value in the assay on P. acnes [6] is “did not influence; also recorded: did not change significantly”. The “growth of USA300” value in the assay with USA300 [7] is on record as “did not influence”.

Source of the values: patent US11590092B2, “Skin probiotic” (The Regents of the University of California, priority 2014, dated 2023).
